Experimental data reported in publication PMC4871610 (Cell, 2015).

What was measured:
CutC (choline TMA lyase) [1] = biological target: T1, CutC (choline TMA lyase) (Proteus mirabilis, UniProt B4EYG1); assay: d9-TMA production by purified CutC and CutD, LC/MS/MS; assay type: biochemical
T1 sequence (B4EYG1 1-1142): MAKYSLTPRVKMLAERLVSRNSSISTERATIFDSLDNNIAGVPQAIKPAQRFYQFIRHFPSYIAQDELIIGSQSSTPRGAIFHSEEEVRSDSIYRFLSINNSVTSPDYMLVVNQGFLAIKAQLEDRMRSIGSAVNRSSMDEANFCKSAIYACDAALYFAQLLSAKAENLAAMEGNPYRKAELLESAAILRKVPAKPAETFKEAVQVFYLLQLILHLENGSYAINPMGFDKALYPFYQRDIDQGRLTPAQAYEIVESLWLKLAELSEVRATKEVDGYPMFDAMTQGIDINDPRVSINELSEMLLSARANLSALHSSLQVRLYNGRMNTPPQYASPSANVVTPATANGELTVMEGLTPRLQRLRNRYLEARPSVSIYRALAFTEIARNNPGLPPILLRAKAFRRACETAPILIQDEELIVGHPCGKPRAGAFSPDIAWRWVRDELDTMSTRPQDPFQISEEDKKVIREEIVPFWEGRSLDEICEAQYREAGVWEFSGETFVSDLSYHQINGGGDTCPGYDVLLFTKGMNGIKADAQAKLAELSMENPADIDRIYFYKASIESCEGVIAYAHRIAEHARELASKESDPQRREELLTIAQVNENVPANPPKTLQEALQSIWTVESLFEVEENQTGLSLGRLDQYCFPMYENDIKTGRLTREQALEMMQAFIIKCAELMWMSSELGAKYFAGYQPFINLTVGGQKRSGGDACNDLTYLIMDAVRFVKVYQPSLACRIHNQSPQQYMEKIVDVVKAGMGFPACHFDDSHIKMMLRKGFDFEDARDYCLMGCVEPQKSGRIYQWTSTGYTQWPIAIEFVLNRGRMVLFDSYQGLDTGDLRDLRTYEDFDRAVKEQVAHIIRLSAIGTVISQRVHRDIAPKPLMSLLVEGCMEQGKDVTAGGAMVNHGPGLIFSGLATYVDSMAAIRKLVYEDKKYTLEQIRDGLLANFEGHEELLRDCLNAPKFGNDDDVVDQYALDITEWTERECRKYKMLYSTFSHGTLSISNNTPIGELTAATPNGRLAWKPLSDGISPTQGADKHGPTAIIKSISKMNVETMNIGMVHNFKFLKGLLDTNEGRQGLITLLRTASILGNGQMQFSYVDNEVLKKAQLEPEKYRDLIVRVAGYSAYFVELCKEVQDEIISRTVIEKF
T1 sequence (B4EYG0 1-316 partner): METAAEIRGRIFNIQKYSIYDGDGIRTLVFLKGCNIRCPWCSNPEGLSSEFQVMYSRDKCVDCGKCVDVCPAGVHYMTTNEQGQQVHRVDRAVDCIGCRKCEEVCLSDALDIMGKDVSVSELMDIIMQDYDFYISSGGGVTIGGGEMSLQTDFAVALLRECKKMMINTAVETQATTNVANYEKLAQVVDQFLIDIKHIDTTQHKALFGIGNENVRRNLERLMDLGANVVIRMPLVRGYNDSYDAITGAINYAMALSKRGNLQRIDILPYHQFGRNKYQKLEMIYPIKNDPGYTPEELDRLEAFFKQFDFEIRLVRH

CutC (choline TMA lyase) [2] = biological target: T1, CutC (choline TMA lyase); assay: d9-TMA production from d9-choline in cutC/D-transformed E. coli lysate; assay type: cell-based
CutC (choline TMA lyase) [3] = biological target: T1, CutC (choline TMA lyase); assay: d9-TMA production from d9-choline in cutC/D-transformed E. coli lysate, LC/MS/MS; assay type: biochemical
YeaW = biological target: T2, YeaW (Escherichia coli, UniProt P0ABR7); assay: d9-TMA production by purified YeaW/X, LC/MS/MS; assay type: biochemical
T2 sequence (P0ABR7 1-374): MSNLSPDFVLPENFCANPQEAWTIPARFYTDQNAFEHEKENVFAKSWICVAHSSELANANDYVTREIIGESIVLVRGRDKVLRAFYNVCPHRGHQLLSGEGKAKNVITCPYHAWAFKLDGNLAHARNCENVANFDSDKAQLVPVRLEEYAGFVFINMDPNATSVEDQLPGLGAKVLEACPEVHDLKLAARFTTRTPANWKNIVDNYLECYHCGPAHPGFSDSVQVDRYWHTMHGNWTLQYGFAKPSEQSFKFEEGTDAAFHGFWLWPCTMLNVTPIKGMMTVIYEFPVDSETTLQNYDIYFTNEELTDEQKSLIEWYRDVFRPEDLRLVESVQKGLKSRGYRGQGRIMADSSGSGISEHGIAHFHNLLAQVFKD

CutC (choline TMA lyase) [4] = biological target: T1, CutC (choline TMA lyase); assay: anaerobic d9-TMA production with purified CutC and CutD, LC/MS/MS; assay type: biochemical

## C[N+](C)(C)CCO [choline]
CutC (choline TMA lyase) [1]
  d9-TMA production by purified CutC and CutD, LC/MS/MS: both purified polypeptides showed dose-dependent inhibition in TMA production from either choline or GPC substrates

## C[P+](C)(C)CCO [P-choline, (2-Hydroxyethyl)(trimethyl)phosphonium]
CutC (choline TMA lyase) [2]
  d9-TMA production from d9-choline in cutC/D-transformed E. coli lysate (activity): phosphonium analogue of choline (P-choline) showed a unique effect by augmenting cutC/D choline TMA lyase activity

## C[Si](C)(C)CCO [TMSi-ETOH, 2-(trimethylsilyl)ethanol]
CutC (choline TMA lyase) [3]
  IC50: ~10 µM

## C[N+](C)(C)CC(O)CC(=O)[O-] (centres unmarked) [carnitine]
YeaW
  d9-TMA production by purified YeaW/X, LC/MS/MS: Purified YeaW/X showed enzymatic cleavage of d9-carnitine

## CC(C)(C)CCO [DMB, 3,3-dimethyl-1-butanol]
CutC (choline TMA lyase) [4]
  IC50: ~10 µM
